From ChEMBL document CHEMBL1201862, “PubChem BioAssay data set” (2004)
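Each compound was tested at five concentrations against cells in 96-well plates for 48 hours. GI50 marks 50% less growth.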 The source made the active and inactive calls. Cut-off read from the data, not from the text of the source: active = GI50 up to about 1.1 µM and inactive = higher.

Columns and labels:
Test in all cases: NCI tumour cell line growth inhibition, 48 h
[1] = system: TK-10
[2] = system: EKVX
[3] = system: HCT-116
[4] = system: OVCAR-8
[5] = system: CCRF-CEM
[6] = system: UACC-62
[7] = system: Malme-3M
[8] = system: M19-MEL
[9] = system: HOP-92
[10] = system: DMS-114
[11] = system: SR
[12] = system: A498
[13] = system: CAKI-1
[14] = system: 786-0
[15] = system: ACHN
[16] = system: DLD-1
[17] = system: LXFL 529
[18] = system: SK-MEL-2
[19] = system: SW-620
[20] = system: NCI-H226
[21] = system: SF-268
[22] = system: UO-31
[23] = system: RXF 393
[24] = system: HL-60
[25] = system: LOX IMVI
[26] = system: XF498
[27] = system: OVCAR-5
[28] = system: IGROV-1
[29] = system: SNB-75
[30] = system: HT-29
[31] = system: K562
[32] = system: MOLT-4
[33] = system: SN12C
[34] = system: SF-295
[35] = system: OVCAR-3
[36] = system: RXF 631
[37] = system: SK-OV-3
[38] = system: UACC-257
[39] = system: KM12
[40] = system: SK-MEL-28
[41] = system: OVCAR-4
[42] = system: NCI-H522
[43] = system: RPMI-8226
[44] = system: U-251
[45] = system: SF-539
[46] = system: SK-MEL-5
[47] = system: DMS-273
[48] = system: A549
[49] = system: COLO 205
[50] = system: HCC 2998
[51] = system: NCI-H460
[52] = system: SNB-78
[53] = system: HOP-62
[54] = system: HOP-18
[55] = system: KM-20L2
[56] = system: M14
[57] = system: SNB-19
[58] = system: HCT-15
[59] = system: NCI-H23

Q: Which GI50 [1] does the source give for CC1CCC2c3c([nH]c4ccccc34)C3C(=O)N(c4ccccc4)C(=O)C3C2C1 (configuration not stated) here?
A: 21.7 µM (inactive)

Q: What about the GI50 [2] of the same compound?
A: > 250 µM (inactive)

Q: What about the GI50 [3] of the same compound?
A: 80.2 µM (inactive)

Q: And the GI50 [4]?
A: 43.5 µM (inactive)

Q: What about the GI50 [5] of the same compound?
A: 20 µM (inactive)

Q: What about the GI50 [6] of the same compound?
A: 30.1 µM (inactive)

Q: What about the GI50 [7] of the same compound?
A: 54.3 µM (inactive)

Q: And the GI50 [8]?
A: > 250 µM (inactive)

Q: What about the GI50 [9] of the same compound?
A: 11.1 µM (inactive)

Q: And the GI50 [10]?
A: 45.5 µM (inactive)

Q: What about the GI50 [11] of the same compound?
A: 65 µM (inactive)

Q: And the GI50 [12]?
A: 43.8 µM (inactive)

Q: And the GI50 [13]?
A: > 250 µM (inactive)

Q: What about the GI50 [14] of the same compound?
A: 13.3 µM (inactive)

Q: And the GI50 [15]?
A: 21.8 µM (inactive)

Q: What about the GI50 [16] of the same compound?
A: > 250 µM (inactive)

Q: What about the GI50 [17] of the same compound?
A: > 250 µM (inactive)

Q: What about the GI50 [18] of the same compound?
A: 32.5 µM (inactive)

Q: And the GI50 [19]?
A: > 250 µM (inactive)

Q: What about the GI50 [20] of the same compound?
A: 32.1 µM (inactive)

Q: What about the GI50 [21] of the same compound?
A: 22.9 µM (inactive)

Q: What about the GI50 [22] of the same compound?
A: 58.3 µM (inactive)

Q: And the GI50 [23]?
A: 12.2 µM (inactive)

Q: What about the GI50 [24] of the same compound?
A: > 250 µM (inactive)

Q: And the GI50 [25]?
A: 42.8 µM (inactive)

Q: And the GI50 [26]?
A: 1.82 µM (inactive)

Q: What about the GI50 [27] of the same compound?
A: > 100 µM (inactive)

Q: What about the GI50 [28] of the same compound?
A: 19.7 µM (inactive)

Q: And the GI50 [29]?
A: 2.65 µM (inactive)

Q: And the GI50 [30]?
A: > 250 µM (inactive)

Q: And the GI50 [31]?
A: 46.8 µM (inactive)

Q: And the GI50 [32]?
A: 25.4 µM (inactive)

Q: What about the GI50 [33] of the same compound?
A: > 250 µM (inactive)

Q: What about the GI50 [34] of the same compound?
A: 15 µM (inactive)

Q: And the GI50 [35]?
A: 49.8 µM (inactive)

Q: What about the GI50 [36] of the same compound?
A: 89.1 µM (inactive)

Q: What about the GI50 [37] of the same compound?
A: 10.1 µM (inactive)

Q: And the GI50 [38]?
A: > 250 µM (inactive)

Q: And the GI50 [39]?
A: > 250 µM (inactive)

Q: And the GI50 [40]?
A: > 250 µM (inactive)

Q: What about the GI50 [41] of the same compound?
A: > 250 µM (inactive)

Q: What about the GI50 [42] of the same compound?
A: 142 µM (inactive)

Q: And the GI50 [43]?
A: > 100 µM (inactive)

Q: What about the GI50 [44] of the same compound?
A: 64.9 µM (inactive)

Q: What about the GI50 [45] of the same compound?
A: 6.64 µM (inactive)

Q: And the GI50 [46]?
A: > 100 µM (inactive)

Q: And the GI50 [47]?
A: 40.6 µM (inactive)

Q: And the GI50 [48]?
A: 90.8 µM (inactive)

Q: What about the GI50 [49] of the same compound?
A: > 100 µM (inactive)

Q: And the GI50 [50]?
A: 106 µM (inactive)

Q: What about the GI50 [51] of the same compound?
A: > 250 µM (inactive)

Q: What about the GI50 [52] of the same compound?
A: 10.6 µM (inactive)

Q: And the GI50 [53]?
A: 32.7 µM (inactive)

Q: And the GI50 [54]?
A: 18.9 µM (inactive)

Q: What about the GI50 [55] of the same compound?
A: > 250 µM (inactive)

Q: And the GI50 [56]?
A: 46.1 µM (inactive)

Q: What about the GI50 [57] of the same compound?
A: 32.6 µM (inactive)

Q: And the GI50 [58]?
A: > 250 µM

Q: And the GI50 [59]?
A: 34.4 µM (inactive)

Q: Which GI50 [1] does the source give for O=C(CN1CCN(c2cccc(Cl)c2)CC1)N1CCc2c([nH]c3ccccc23)C1c1cccnc1 (configuration not stated) here?
A: 26.2 µM (inactive)

Q: What about the GI50 [2] of the same compound?
A: 16.8 µM (inactive)

Q: What about the GI50 [3] of the same compound?
A: 4.5 µM (inactive)

Q: And the GI50 [4]?
A: 19.4 µM (inactive)

Q: What about the GI50 [5] of the same compound?
A: 3.15 µM (inactive)

Q: And the GI50 [6]?
A: 11.3 µM (inactive)

Q: What about the GI50 [8] of the same compound?
A: 7.76 µM (inactive)

Q: And the GI50 [9]?
A: 12.8 µM (inactive)

Q: What about the GI50 [10] of the same compound?
A: 4.25 µM (inactive)

Q: What about the GI50 [11] of the same compound?
A: 2.23 µM (inactive)

Q: And the GI50 [12]?
A: 20.5 µM (inactive)

Q: What about the GI50 [13] of the same compound?
A: 12.8 µM (inactive)

Q: And the GI50 [14]?
A: 11.8 µM (inactive)

Q: What about the GI50 [15] of the same compound?
A: 8.87 µM (inactive)

Q: And the GI50 [16]?
A: 7.31 µM (inactive)

Q: And the GI50 [19]?
A: 7.14 µM (inactive)

Q: And the GI50 [21]?
A: 13.1 µM (inactive)

Q: What about the GI50 [22] of the same compound?
A: 4.1 µM (inactive)

Q: What about the GI50 [23] of the same compound?
A: 2.67 µM (inactive)

Q: And the GI50 [24]?
A: 2.38 µM (inactive)

Q: And the GI50 [26]?
A: 12.2 µM (inactive)

Q: And the GI50 [27]?
A: 3.96 µM (inactive)

Q: And the GI50 [28]?
A: 22.4 µM (inactive)

Q: What about the GI50 [29] of the same compound?
A: 7.62 µM (inactive)

Q: What about the GI50 [30] of the same compound?
A: 4 µM (inactive)

Q: What about the GI50 [31] of the same compound?
A: 3.03 µM (inactive)

Q: And the GI50 [32]?
A: 2.54 µM (inactive)

Q: What about the GI50 [33] of the same compound?
A: 9.57 µM (inactive)

Q: And the GI50 [34]?
A: 8.53 µM (inactive)

Q: And the GI50 [35]?
A: 15.5 µM (inactive)

Q: And the GI50 [36]?
A: 7.31 µM (inactive)

Q: What about the GI50 [37] of the same compound?
A: > 100 µM (inactive)

Q: What about the GI50 [38] of the same compound?
A: 5.41 µM (inactive)

Q: What about the GI50 [39] of the same compound?
A: 4.85 µM (inactive)

Q: What about the GI50 [40] of the same compound?
A: 12.2 µM (inactive)

Q: What about the GI50 [41] of the same compound?
A: 13.5 µM (inactive)

Q: And the GI50 [42]?
A: 12.2 µM (inactive)

Q: What about the GI50 [43] of the same compound?
A: 1.92 µM (inactive)

Q: And the GI50 [44]?
A: 10.2 µM (inactive)

Q: What about the GI50 [45] of the same compound?
A: 15.5 µM (inactive)

Q: And the GI50 [46]?
A: 11.9 µM (inactive)

Q: And the GI50 [47]?
A: 6.68 µM (inactive)

Q: And the GI50 [48]?
A: 7.13 µM (inactive)

Q: What about the GI50 [50] of the same compound?
A: 5.24 µM (inactive)

Q: What about the GI50 [51] of the same compound?
A: 4.4 µM (inactive)

Q: And the GI50 [52]?
A: 18.3 µM (inactive)

Q: What about the GI50 [53] of the same compound?
A: 14.7 µM (inactive)

Q: And the GI50 [54]?
A: 33.2 µM (inactive)

Q: What about the GI50 [55] of the same compound?
A: 3 µM (inactive)

Q: What about the GI50 [56] of the same compound?
A: 4.47 µM (inactive)

Q: And the GI50 [57]?
A: 26.1 µM (inactive)

Q: What about the GI50 [58] of the same compound?
A: 5.25 µM

Q: And the GI50 [59]?
A: 16.4 µM (inactive)
